Literature values as cited in patent US20230374563A1, “Methods for Antimicrobial Susceptibility Testing” (MicrobeDX, Inc., priority 2017, published 2023).
In brackets after ≈: the same amount, converted by molar mass.

Test system: bacteria
Settings: for CLSI MIC Cutoffs for (Urine) AST Determination I / MIC Criteria CLSI M100 (2018) I: Intermediate; for CLSI MIC Cutoffs for (Urine) AST Determination R / MIC Criteria CLSI M100 (2018) R: Resistant; for CLSI MIC Cutoffs for (Urine) AST Determination S / MIC Criteria CLSI M100 (2018) S: Susceptible; for MIC Criteria CLSI M100 (2018) S: cefazolin cutoffs for cases not identified as uncomplicated

Compound | CLSI MIC Cutoffs for (Urine) AST Determination I | CLSI MIC Cutoffs for (Urine) AST Determination R | CLSI MIC Cutoffs for (Urine) AST Determination S | MIC Criteria CLSI M100 (2018) I [mg/L] | MIC Criteria CLSI M100 (2018) R [mg/L] | MIC Criteria CLSI M100 (2018) S [mg/L]
NCC[C@H](O)C(=O)N[C@@H]1C[C@H](N)[C@@H](O[C@H]2O[C@H](CN)[C@@H](O)[C@H](O)[C@H]2O)[C@H](O)[C@H]1O[C@H]1O[C@H](CO)[C@@H](O)[C@H](N)[C@H]1O [Amikacin] | 32 µg/mL | ≥64 µg/mL | ≤16 µg/mL | – | – | –
Gentamicin | 8 µg/mL | ≥16 µg/mL | ≤4 µg/mL | – | – | –
C[C@@H]1O[C@@H]1P(=O)(O)O [Fosfomycin] | 128 µg/mL | ≥256 µg/mL | ≤64 µg/mL | – | – | –
Piperacillin/Tazobactam [Pip/Tazo] | – | ≥128/4 | ≤16/4 | – | – | –
CC1(C)S[C@@H]2[C@H](NC(=O)[C@H](N)c3ccccc3)C(=O)N2[C@H]1C(=O)O [Ampicillin] | 16 µg/mL | ≥32 µg/mL | <8 µg/mL | 16 (≈ 45.8 µM) | ≥32 | ≤8
Amoxicillin/Clavulanate [Amox/Clav] | 16/8 | ≥32/16 | ≤8/4 | – | – | –
Trimethoprim/Sulfamethoxazole [TMP/SMX] | – | ≥4/76 | ≤2/38 | – | – | –
C[C@@H](O)[C@H]1C(=O)N2C(C(=O)O)=C(S[C@@H]3CN[C@H](C(=O)N(C)C)C3)[C@H](C)[C@H]12 [Meropenem] | 2 µg/mL | ≥4 µg/mL | ≤1 µg/mL | – | – | –
C[C@@H](O)[C@H]1C(=O)N2C(C(=O)O)=C(S[C@@H]3CN[C@H](C(=O)Nc4cccc(C(=O)O)c4)C3)[C@H](C)[C@H]12 [Ertapenem] | 1 µg/mL | ≥2 µg/mL | ≤0.5 µg/mL | – | – | –
CO/N=C(\C(=O)N[C@@H]1C(=O)N2C(C(=O)O)=C(CSc3nc(=O)c(=O)[nH]n3C)CS[C@H]12)c1csc(N)n1 [Ceftriaxone] | 2 µg/mL | ≥4 µg/mL | ≤1 µg/mL | 2 (≈ 3.61 µM) | ≥4 | ≤1
